Measured values reported in patent US20100298141A1, “SUBSTITUTED PYRIDINE N-OXIDE HERBICIDES” (E. I. DU PONT DE NEMOURS AND COMPANY, priority 2007, published 2010).

Columns and labels:
common ragweed = test: Test C pre-/postemergence test; format: in vivo, Ambrosia elation; conditions: for Plant response rating, Ragweed: 31 g ai/ha, scale 0 to 100 (0 no effect, 100 complete control)
Summary of the method: (§1)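 Seeds were planted and treated preemergence with test chemical in a non-phytotoxic solvent mixture containing surfactant. Postemergence applications of the same formulation went onto plants 2 to 18 cm tall (1- to 4-leaf stage). A dash marks no test result.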

broadleaf signalgrass = test: Test F preemergence test; format: in vivo, Brachiaria platyphylla; conditions: scale 0 to 100
Description: (§2) Seeds of plant species selected from bermudagrass (Cynodon dactylon), Surinam grass (Brachiaria decumbens), large crabgrass (Digitaria sanguinalis), green foxtail (Setaria viridis), goosegrass (Eleusine indica), johnsongrass (Sorghum halepense), kochia (Kochia scoparia), pitted morningglory (Ipomoea lacunosa), purple nutsedge (Cyperus rotundus), common ragweed (Ambrosia elation), mustard (Brassica nigra), guineagrass (Panicum maximum), […] (Paspalum dilatatum), barnyardgrass (Echinochloa crus-galli), southern sandbur (Cenchrus echinatus), common sowthistle (Sonchus oleraceous), prickly […] spinosa), Italian ryegrass (Lolium multiflorum), common purslane (Portulaca oleracea), broadleaf signalgrass (Brachiaria platyphylla), common groundsel (Senecio vulgaris), common chickweed (Stellaria media), Virginia dayflower (Commelina virginica), annual bluegrass (Poa annua), naked crabgrass (Digitaria nuda), […] cochinchinensis), quackgrass (Elytrigia repens), Canada horseweed (Conyza canadensis), field bindweed (Convolvulus arvensis), […] (Bidens bipinnata), common mallow (Malva sylvestris), Russian thistle (Salsola kali), and sugarcane (Saccharum officinarum) were planted and treated preemergence with test chemicals formulated in a non-phytotoxic solvent mixture which included a surfactant. At a different time, sugarcane was treated with postemergence applications of some of the test chemicals formulated in the same manner. Plants were approximately 3- to 4-leaf stage for the postemergence treatments. Treated plants and controls were maintained in a greenhouse for 14 to 21 days, after which time all species were compared to controls and visually evaluated. […] A dash (-) response means no test result.

dallisgrass = test: Test F preemergence test; format: in vivo, Paspalum dilatatum; conditions: scale 0 to 100
Description: as §2

bermudagrass = test: Test F preemergence test; format: in vivo, Cynodon dactylon; conditions: scale 0 to 100
Description: as §2

common mallow = test: Test F preemergence test; format: in vivo, Malva sylvestris; conditions: scale 0 to 100
Description: as §2

green foxtail = test: Test C pre-/postemergence test; format: in vivo, Setaria viridis; conditions: for Plant response rating, Foxtail, Green: 31 g ai/ha, scale 0 to 100 (0 no effect, 100 complete control)
Summary of the method: as §1

quackgrass = test: Test F preemergence test; format: in vivo, Elytrigia repens; conditions: scale 0 to 100
Description: as §2

mustard = test: Test F preemergence test; format: in vivo, Brassica nigra; conditions: scale 0 to 100
Description: as §2

blackgrass = test: Test C pre-/postemergence test; format: in vivo, Alopecurus myosuroides; conditions: for Plant response rating, Blackgrass: 31 g ai/ha, scale 0 to 100 (0 no effect, 100 complete control)
Summary of the method: as §1

prickly sida = test: Test F preemergence test; format: in vivo, Sida spinosa; conditions: scale 0 to 100
Description: as §2

Surinam grass = test: Test F preemergence test; format: in vivo, Brachiaria decumbens; conditions: scale 0 to 100
Description: as §2

corn = test: Test A pre-/postemergence greenhouse test; format: in vivo, Zea mays; conditions: for Plant response rating, Corn: 0 to 100 scale where 0 is no effect and 100 is complete control; for Corn plant response rating: 0 to 100 scale
Summary of the method: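 Visual injury ratings against untreated controls, taken roughly ten days after treatment in greenhouse. Plants were sprayed postemergence at one- to two-leaf stage (2–10 cm tall); at the same time, seeded loam/sand soil received a directed preemergence spray. Formulation: non-phytotoxic solvent mixture with surfactant.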

kochia = test: Test F preemergence test; format: in vivo, Kochia scoparia; conditions: scale 0 to 100
Description: as §2

[1] = 62 g ai/ha, Preemergence, scale 0 to 100
[2] = 125 g ai/ha, preemergence, scale 0 (no effect) to 100 (complete control)
[3] = preemergence, 250 g ai/ha, scale 0 (no effect) to 100 (complete control)
[4] = Postemergence, 500 g ai/ha, 0 is no effect, 100 is complete control
[5] = Preemergence, 125 g ai/ha, 0 no effect, 100 complete control

Cn1nc(C(F)(F)F)c(C[S+]([O-])c2ccc(Cl)c[n+]2[O-])c1OCC(F)F (stereo not drawn) [Compound 85]
Ragweed plant response rating (common ragweed; [1]): 100 | Ragweed plant response rating (common ragweed; [2]): 100 | Plant response rating, Ragweed (common ragweed; Preemergence): 100 | Ragweed plant response rating (common ragweed; [3]): 100 | Plant response rating, Signalgrass (broadleaf signalgrass; 16 g ai/ha, preemergence): 60 | Signalgrass plant response rating (broadleaf signalgrass; 125 g ai/ha, preemergence): 80 | Plant response rating, Signalgrass (broadleaf signalgrass; Preemergence, 62 g ai/ha): 70 | Plant response rating, Signalgrass (broadleaf signalgrass; Preemergence, 31 g ai/ha): 70 | Plant response rating, Dallisgrass (dallisgrass; 16 g ai/ha, preemergence): 15 | Dallisgrass plant response rating (dallisgrass; 125 g ai/ha, preemergence): 98 | Plant response rating, Dallisgrass (dallisgrass; Preemergence, 62 g ai/ha): 85 | Plant response rating, Dallisgrass (dallisgrass; Preemergence, 31 g ai/ha): 75 | Plant response rating, Bermudagrass (bermudagrass; 16 g ai/ha, preemergence): 20 | Bermudagrass plant response rating (bermudagrass; 125 g ai/ha, preemergence): 95 | Plant response rating, Bermudagrass (bermudagrass; Preemergence, 62 g ai/ha): 80 | Plant response rating, Bermudagrass (bermudagrass; Preemergence, 31 g ai/ha): 60 | Plant response rating, Mallow (common mallow; 16 g ai/ha, preemergence): 0 | Mallow plant response rating (common mallow; 125 g ai/ha, preemergence): 98 | Plant response rating, Mallow (common mallow; Preemergence, 62 g ai/ha): 98 | Plant response rating, Mallow (common mallow; Preemergence, 31 g ai/ha): 50 | Foxtail, Green plant response rating (green foxtail; [1]): 100 | Foxtail, Green plant response rating (green foxtail; [2]): 100 | Plant response rating, Foxtail, Green (green foxtail; Preemergence): 100 | Foxtail, Green plant response rating (green foxtail; [3]): 100 | Plant response rating, Quackgrass (quackgrass; 16 g ai/ha, preemergence): 20 | Quackgrass plant response rating (quackgrass; 125 g ai/ha, preemergence): 95 | Plant response rating, Quackgrass (quackgrass; Preemergence, 62 g ai/ha): 80 | Plant response rating, Quackgrass (quackgrass; Preemergence, 31 g ai/ha): 65 | Plant response rating, Black Mustard (mustard; 16 g ai/ha, preemergence): 40 | Black Mustard plant response rating (mustard; 125 g ai/ha, preemergence): 60 | Plant response rating, Black Mustard (mustard; Preemergence, 62 g ai/ha): 40 | Plant response rating, Black Mustard (mustard; Preemergence, 31 g ai/ha): 40 | Blackgrass plant response rating (blackgrass; [1]): 100 | Blackgrass plant response rating (blackgrass; [2]): 100 | Plant response rating, Blackgrass (blackgrass; Preemergence): 100 | Blackgrass plant response rating (blackgrass; [3]): 100 | Plant response rating, Prickly Sida (prickly sida; 16 g ai/ha, preemergence): 0 | Prickly Sida plant response rating (prickly sida; 125 g ai/ha, preemergence): 60 | Plant response rating, Prickly Sida (prickly sida; Preemergence, 62 g ai/ha): 40 | Plant response rating, Prickly Sida (prickly sida; Preemergence, 31 g ai/ha): 20 | Plant response rating, Surinam Grass (Surinam grass; 16 g ai/ha, preemergence): 60 | Surinam Grass plant response rating (Surinam grass; 125 g ai/ha, preemergence): 100 | Plant response rating, Surinam Grass (Surinam grass; Preemergence, 62 g ai/ha): 100 | Plant response rating, Surinam Grass (Surinam grass; Preemergence, 31 g ai/ha): 100 | Plant response rating, Corn (corn; Postemergence, 125 g ai/ha): 0 | Corn plant response rating (corn; [4]): 60 | Corn plant response rating (corn; [5]): 0 | Plant response rating, Corn (corn; Preemergence, 500 g ai/ha): 80 | Kochia plant response rating (kochia; 125 g ai/ha, preemergence): 100 | Plant response rating, Kochia (kochia; Preemergence, 62 g ai/ha): 100 | Plant response rating, Kochia (kochia; Preemergence, 31 g ai/ha): 25

CCc1cc[n+]([O-])c(S(=O)(=O)Cc2c(C(F)(F)F)nn(C)c2OCC(F)(F)F)c1 [Compound 60]
Ragweed plant response rating (common ragweed; [1]): 60 | Plant response rating, Ragweed (common ragweed; Preemergence): 30 | Ragweed plant response rating (common ragweed; [3]): 90 | Signalgrass plant response rating (broadleaf signalgrass; 125 g ai/ha, preemergence): 75 | Signalgrass plant response rating (broadleaf signalgrass; 250 g ai/ha, preemergence): 100 | Plant response rating, Signalgrass (broadleaf signalgrass; Preemergence, 62 g ai/ha): 75 | Plant response rating, Signalgrass (broadleaf signalgrass; Preemergence, 31 g ai/ha): 30 | Dallisgrass plant response rating (dallisgrass; 62 g ai/ha, Preemergence): 75 | Dallisgrass plant response rating (dallisgrass; 125 g ai/ha, preemergence): 80 | Dallisgrass plant response rating (dallisgrass; 250 g ai/ha, preemergence): 100 | Plant response rating, Dallisgrass (dallisgrass; Preemergence, 31 g ai/ha): 75 | Bermudagrass plant response rating (bermudagrass; 62 g ai/ha, Preemergence): 80 | Bermudagrass plant response rating (bermudagrass; 125 g ai/ha, preemergence): 100 | Bermudagrass plant response rating (bermudagrass; 250 g ai/ha, preemergence): 100 | Plant response rating, Bermudagrass (bermudagrass; Preemergence, 31 g ai/ha): 20 | Mallow plant response rating (common mallow; 62 g ai/ha, Preemergence): 75 | Mallow plant response rating (common mallow; 125 g ai/ha, preemergence): 100 | Mallow plant response rating (common mallow; 250 g ai/ha, preemergence): 100 | Plant response rating, Mallow (common mallow; Preemergence, 31 g ai/ha): 0 | Foxtail, Green plant response rating (green foxtail; [1]): 100 | Foxtail, Green plant response rating (green foxtail; [2]): 100 | Plant response rating, Foxtail, Green (green foxtail; Preemergence): 85 | Foxtail, Green plant response rating (green foxtail; [3]): 100 | Quackgrass plant response rating (quackgrass; 62 g ai/ha, Preemergence): 75 | Quackgrass plant response rating (quackgrass; 125 g ai/ha, preemergence): 90 | Quackgrass plant response rating (quackgrass; 250 g ai/ha, preemergence): 100 | Plant response rating, Quackgrass (quackgrass; Preemergence, 31 g ai/ha): 30 | Black Mustard plant response rating (mustard; 62 g ai/ha, Preemergence): 60 | Black Mustard plant response rating (mustard; 125 g ai/ha, preemergence): 100 | Black Mustard plant response rating (mustard; 250 g ai/ha, preemergence): 100 | Plant response rating, Black Mustard (mustard; Preemergence, 31 g ai/ha): 0 | Blackgrass plant response rating (blackgrass; [1]): 90 | Blackgrass plant response rating (blackgrass; [2]): 100 | Plant response rating, Blackgrass (blackgrass; Preemergence): 85 | Blackgrass plant response rating (blackgrass; [3]): 100 | Prickly Sida plant response rating (prickly sida; 62 g ai/ha, Preemergence): 40 | Prickly Sida plant response rating (prickly sida; 125 g ai/ha, preemergence): 75 | Prickly Sida plant response rating (prickly sida; 250 g ai/ha, preemergence): 75 | Plant response rating, Prickly Sida (prickly sida; Preemergence, 31 g ai/ha): 0 | Surinam Grass plant response rating (Surinam grass; 125 g ai/ha, preemergence): 100 | Surinam Grass plant response rating (Surinam grass; 250 g ai/ha, preemergence): 100 | Plant response rating, Surinam Grass (Surinam grass; Preemergence, 62 g ai/ha): 90 | Plant response rating, Surinam Grass (Surinam grass; Preemergence, 31 g ai/ha): 80 | Plant response rating, Corn (corn; Postemergence, 125 g ai/ha): 30 | Corn plant response rating (corn; [4]): 60 | Corn plant response rating (corn; [5]): 0 | Plant response rating, Corn (corn; Preemergence, 500 g ai/ha): 50 | Kochia plant response rating (kochia; 62 g ai/ha, Preemergence): 65 | Kochia plant response rating (kochia; 125 g ai/ha, preemergence): 100 | Kochia plant response rating (kochia; 250 g ai/ha, preemergence): 100 | Plant response rating, Kochia (kochia; Preemergence, 31 g ai/ha): 0
